In PMC6721824, “IGFs Potentiate TAC3-induced SLα Expression via Upregulation of TACR3 Expression in Grass Carp Pituitary Cells” (Cells, 2019):

What was measured:
[1] = tested on: SLα mRNA expression in grass carp pituitary cells; test: SLα mRNA expression (qPCR) in grass carp pituitary cells; type: cell-based, grass carp (Ctenopharyngodon idellus); settings: for effect on SLα mRNA expression induced by IGF-I or senktide treatment alone: senktide 1 µM, IGF-I 100 nM; for effect on SLα mRNA expression induced by IGF-I or senktide treatment alone / effect on the synergistic effect on SLα mRNA expression caused by IGF-I and senktide cotreatment: inhibitors 10 µM, 2-APB 100 µM, calmidazolium 1 µM (Figure 5A–C); for effect on the synergistic effect on SLα mRNA expression caused by IGF-I and senktide cotreatment: senktide (1 µM) + IGF-I (100 nM); for SLα mRNA levels, activator alone: static incubation for 24 h, 8Br.cAMP 10 µM, forskolin 1 µM, Dic8 100 µM, TPA 10 µM, A23187 100 nM, BayK8644 100 nM (Figure 5D)
Description: (§1) Grass carp pituitary cells prepared by the trypsin/DNase digestion method were seeded in 24-well plates at ~2.5 × 10^6 cells/mL/well. On the following day, drug treatment was initiated by replacing the old medium with a testing medium with the appropriate levels of test substances, and the cells were then allowed to incubate at 28 °C for the duration as indicated. After drug treatment, total RNA was extracted from individual wells and reversely transcribed as above. The RT samples obtained were subjected to qPCR using a LightCycler SYBR Green I Kit (Roche, Stockholm, Sweden) with the primers mentioned above. In these studies, serial dilutions of plasmid DNA containing the ORF of SLα (GeneBank no.: EF372074) and TACR3 (GenBank no: JQ254913) cDNA were used as the standards for data calibration. Parallel real-time PCR measurement of β-actin was also conducted in individual experiments to serve as the internal control.
(§2) For real-time PCR of SLα and TACR3 mRNA measurement, standard curves with a dynamic range of ≥10^5 and correlation coefficient of ≥0.95 were used for data calibration with the RotorGene-Q software 1.7 (Qiagen) under unsupervised mode. SLα and TACR3 mRNA data were normalized with the β-actin transcript level and then were transformed as a percentage of the mean value in the control group without drug treatment (as “%Ctrl”). For the calcium bioluminescence signals and raw data obtained from luciferase reporter assays, the luminescence signals or luciferase activity was expressed as “relative luminescence unit (RLU)” registered by the fluorescence plate reader. For individual samples of the luciferase reporter assay, the firefly luciferase activity detected was routinely normalized against Renilla Luciferase activity expressed in the same well and expressed as the luciferase activity ration (as “Luc Ratio”). For receptor binding assay, specific binding of FAM-NKBa was measured in terms of “Arbitrary Fluorescence Unit (AFU)”. The six replicates presented (expressed as Mean ± SEM) were pooled results from two individual experiments prior to statistical analysis; all data were tested for normality of distribution using the Shapiro–Wilk normality test. Then, one-way ANOVA and two-way ANOVA were used to test the significant difference according to different experiment groups. The differences between groups were considered as significant at P < 0.05 (“*”) or highly significant at P < 0.01 (“**”).

[2] = tested on: TACR3 mRNA expression in grass carp pituitary cells; test: TACR3 mRNA expression (qPCR) in grass carp pituitary cells; type: cell-based, grass carp (Ctenopharyngodon idellus); settings: for effect on IGF-I-induced TACR3 mRNA expression: 24 h cotreatment with IGF-I (10 nM), inhibitors 10 µM, wortmannin 1 µM, rapamycin 20 nM
Description: as §1, §2

| Compound | effect on SLα mRNA expression induced by IGF-I or senktide treatment alone [1] | effect on the synergistic effect on SLα mRNA expression caused by IGF-I and senktide cotreatment [1] | SLα mRNA levels, activator alone [1] | also measured |
| --- | --- | --- | --- | --- |
| NCCOB(c1ccccc1)c1ccccc1 [2-APB] | attenuated | notably suppressed |  |  |
| Cl.c1ccc(C2CCCC2NC2=NCCCCCCCCCCC2)cc1 (stereo not shown) [MDL12330A] | attenuated | notably suppressed |  |  |
| CCCCCCCCCCCCCC(=O)O[C@@H]1[C@@H](C)[C@@]2(O)[C@@H](C=C(CO)C[C@]3(O)C(=O)C(C)=C[C@@H]23)[C@@H]2C(C)(C)[C@]12OC(C)=O [TPA] |  |  | effective in elevating SLα mRNA levels |  |
| insulin: Human insulin, purchased from Sigma |  |  |  | TACR3 mRNA expression, dose-dependence ([2]; 24-h incubation, 0.01–100 nM (Figure 3C)): not mimicked |
| COc1ccc(Cl)cc1NC(=O)Nc1cc(C)nc2ccccc12 [PQ401] |  |  |  | effect on IGF-I-induced TACR3 mRNA expression [2]: totally abolished |
| O=P(O)(O)C(O)c1ccc2ccccc2c1 (stereo not shown) [HNMPA] |  |  |  | effect on IGF-I-induced TACR3 mRNA expression [2]: not effective |
| Nc1ncnc2c1nc(Br)n2[C@@H]1O[C@@H]2COP(=O)(O)O[C@H]2[C@H]1O [8Br.cAMP] |  |  | effective in elevating SLα mRNA levels |  |
| COc1cc([C@@H]2c3cc4c(cc3[C@H](O)[C@H]3COC(=O)[C@@H]23)OCO4)cc(OC)c1OC [PPP] |  |  |  | effect on IGF-I-induced TACR3 mRNA expression [2]: partially inhibited |
| CN([C@@H](Cc1ccc(OS(=O)(=O)c2cccc3cnccc23)cc1)C(=O)N1CCN(c2ccccc2)CC1)S(=O)(=O)c1cccc2cnccc12 [KN62] | attenuated | notably suppressed |  |  |
| CNc1ccc2oc(C[C@H]3O[C@@]4(CC[C@H]3C)O[C@H]([C@H](C)C(=O)c3ccc[nH]3)[C@H](C)C[C@H]4C)nc2c1C(=O)O [A23187] |  |  | effective in elevating SLα mRNA levels |  |
| CC[C@H](NC(=O)c1c(C)c(-c2ccccc2)nc2ccccc12)c1ccccc1 [SB222200] |  |  |  | effect on the potentiating effect induced by IGF-I + NKBRPa on SLα transcript expression ([1]; antagonist 10 µM, IGF-I (100 nM) + NKBRPa (1 µM) (Figure 4F)): markedly reduced; effect on IGF-I- or NKBRPa-induced SLα transcript expression ([1]; antagonist 10 µM, NKBRPa 1 µM, IGF-I 100 nM (Figure 4F)): suppress |
| COC(=O)C1=C(C)NC(C)=C(C(=O)OC)C1c1ccccc1[N+](=O)[O-] [nifedipine] | attenuated | notably suppressed |  |  |
| COc1ccc2c(c1)CC[C@@H]1[C@@H]2CC[C@]2(C)[C@@H](NCCCCCCN3C(=O)C=CC3=O)CC[C@@H]12 [U73122] | attenuated | notably suppressed |  |  |
| CN(C)CCCn1cc(C2=C(c3c[nH]c4ccccc34)C(=O)NC2=O)c2ccccc21 [GF109203X] | attenuated | notably suppressed |  |  |
| COC(=O)C1=C(C)NC(C)=C([N+](=O)[O-])C1c1ccccc1C(F)(F)F (stereo not shown) [BayK8644] |  |  | effective in elevating SLα mRNA levels |  |
| Clc1ccc(C(c2ccc(Cl)cc2)n2cc[n+](CC(OCc3ccc(Cl)cc3Cl)c3ccc(Cl)cc3Cl)c2)cc1 (stereo not shown) [calmidazolium] | attenuated | notably suppressed |  |  |
| CCCCCCCC(=O)OCC(CO)OC(=O)CCCCCCC (stereo not shown) [Dic8] |  |  | effective in elevating SLα mRNA levels |  |
| C=C[C@@]1(C)CC(=O)[C@]2(O)[C@@]3(C)[C@@H](O)CCC(C)(C)[C@@H]3[C@H](O)[C@H](OC(C)=O)[C@@]2(C)O1 [forskolin] |  |  | effective in elevating SLα mRNA levels |  |
| O=S(=O)(NCCNC/C=C/c1ccc(Br)cc1)c1cccc2cnccc12 [H89] | attenuated | notably suppressed |  |  |
